≈ marks a conversion by molar mass, not a printed value. Calls of active or inactive are those of the source. The calls are words filed in the database; no cut-off is given here.
Columns and labels:
[1] = system: Mycobacterium tuberculosis; assay: Antimicrobial activity against drug-resistant Mycobacterium tuberculosis; type: functional
[2] = system: Mycobacterium tuberculosis; assay: Bactericidal activity against Mycobacterium tuberculosis selected on 10 times compound MIC measured after 6 days; type: functional, organism-based
[3] = system: Mycobacterium tuberculosis; assay: Bactericidal activity against Mycobacterium tuberculosis selected on 100 times compound MIC measured after 6 days; type: functional, organism-based

**Q.** For `COc1nc2ccc(Br)cc2cc1[C@@H](c1ccccc1)[C@@](O)(CCN(C)C)c1cccc2ccccc12` [BEDAQUILINE], which MIC [1] is on record?
**A.** 0.03 µg/mL (≈ 0.054 µM)

**Q.** And the Activity [2]?
**A.** Active

**Q.** And the Activity [3]?
**A.** Active
